System: U-87 MG cells
Experiment: MTT assay of cytotoxicity of vector-infected cells treated with GCV
Assay type: cell-based, human
Settings: normal (non-infected) cells
Procedure: In order to measure a degree of cytotoxicity of the cells infected with the spRCR-TK vector when treated with GCV in vitro, MTT assay was carried out. First, a vector carrying a therapeutic gene, TK, instead of a GFP gene of the Env vector was prepared. Then, the 293T cells were transfected with the prepared vector and a Gag-pol vector, so as to manufacture the spRCR-TK vector. Then, the U-87 MG cells were infected with the virus of the spRCR-TK vector, and maintained for 14 days. Afterwards, the infected cells and non-infected cells were inoculated into a 96-well plate. […] The GCV treatment period was divided as the 1st, 2nd, 3rd, and 4th day, to perform MTT assay.

## Nc1nc(O)c2ncn(COC(CO)CO)c2n1 [GCV, Ganciclovir]
  GCV concentration from which normal cells show cytotoxicity: ≥ 70 µg/mL

Reference: patent publication US9657312B2, “Replication competent pseudo-type retrovirus vector system” (Inje University Industry-Academic Cooperation Foundation, priority 2012, dated 2017)
